Measured values taken from BindingDB's records for doi:10.1021/jm960097t (Duquesne University, 1996).

What was measured:
[1] = biological target: Thymidylate synthase (Streptococcus faecium); assay: The inhibitory concentration of compound was evaluated on Streptococcus faecium Thymidylate synthase
[2] = biological target: Thymidylate synthase (Pneumocystis carinii); assay: The inhibitory concentration of compound was evaluated on Pneumocystis carini Thymidylate synthase

IC50 [1] [µM] | IC50 [2] [µM] | SMILES
> 25 |  | Cc1[nH]c2nc(N)[nH]c(=O)c2c1Sc1ccc2ccccc2c1 [2-Amino-6-methyl-5-(naphthalen-2-ylsulfanyl)-3,7-dihydro-pyrrolo[2,3-d]pyrimidin-4-one]
29 |  | Cc1[nH]c2nc(N)[nH]c(=O)c2c1Sc1ccncc1 [2-Amino-6-methyl-5-(pyridin-4-ylsulfanyl)-3,7-dihydro-pyrrolo[2,3-d]pyrimidin-4-one]
> 30 | 60 | Cc1[nH]c2nc(N)[nH]c(=O)c2c1Sc1ccccc1 [2-Amino-6-methyl-5-phenylsulfanyl-3,7-dihydro-pyrrolo[2,3-d]pyrimidin-4-one]
